IC50 data for 29 molecules are collected here from patent publication US12172989B2, “Histone acetyltransferase (HAT) inhibitor and use thereof” (SHANGHAI INSTITUTE OF MATERIA MEDICA, CHINESE ACADEMY OF …, priority 2018, dated 2024).

Assay [1] deals with T1, histone acetyltransferase p300 (Homo sapiens, UniProt Q09472).
T1 construct: purchased BPS Corporation 50071
T1 sequence (Q09472 1284-1673 limits assumed): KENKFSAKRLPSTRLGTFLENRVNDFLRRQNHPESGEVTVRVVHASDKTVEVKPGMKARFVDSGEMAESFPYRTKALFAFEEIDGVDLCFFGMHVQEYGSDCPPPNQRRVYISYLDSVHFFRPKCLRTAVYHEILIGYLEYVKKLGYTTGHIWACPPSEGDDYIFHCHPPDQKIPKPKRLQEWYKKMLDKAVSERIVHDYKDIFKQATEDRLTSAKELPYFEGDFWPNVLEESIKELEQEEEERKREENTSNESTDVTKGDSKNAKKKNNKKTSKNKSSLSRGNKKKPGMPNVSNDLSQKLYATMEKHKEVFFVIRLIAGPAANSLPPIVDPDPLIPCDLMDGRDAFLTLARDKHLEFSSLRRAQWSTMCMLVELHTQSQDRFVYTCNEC
The assay can be described thus: Histone acetyltransferase (p300) activity assay (radioisotope, [3H]-Ac-CoA). The assay is classed as biochemical. The conditions noted are these: p300 0.05 nM; histone peptide 600 nM, [3H]-Ac-CoA 250 nM; 60 min at room temperature; read-out: Inhibition rate IC50. The procedure:
The reaction was finally terminated with Ac-CoA (Sigma, Cat. No. A2056) without isotope labeling. If the activity of the acetyltransferase p300 was inhibited, the isotope signal cannot be detected on the substrate polypeptide. Therefore, the inhibitory activity of the compound against the acetyltransferase p300 was evaluated.
In the enzyme reaction system, 200 nL of a diluted compound (100% DMSO) was first transferred to a test plate using Echo, where the final concentration of the compound in the enzyme reaction system ranges from 0.25 to 5000 nM. Then 10 μL/well of p300 protein (final concentration of 0.05 nM) was transferred therein, and incubated with the compound for 15 min at room temperature. Then 10 μL/well of a substrate mixture (final concentrations of histone peptide and [^3H]—Ac-CoA were 600 nM and 250 nM, respectively) was added to start the enzyme-catalyzed reaction, and incubated at room temperature for 60 min. Then 10 µL/well of a 250 μM cold Ac-CoA solution was added to stop the reaction. Finally 25 μL/well of the reaction solution was transferred to a 384-well Flashplate (Perkin Elmer, Cat. No. SMP410A001PK), and incubated at room temperature for 1 h. The resultant was washed with double distilled water+0.1% Tween-20 three times. The signal value was read by using Microbeta. The data was analyzed by using GraphPad Prism 5.0 software to obtain IC50.

Assay [2] has as its system Human castration resistant prostate cancer cell line LNCaP clone FGC. The assay can be described thus: Cell growth inhibition experiment (CellTiter-Glo), LNCaP clone FGC. In kind it is cell-based. The conditions noted are these: Homo sapiens, 120 h, LNCaP clone FGC cells treated with the compound for 5 days. The procedure: (§1) Human castration resistant prostate cancer cell line 22Rv1 and LNCaP clone FGC (22Rv1 cell line was from ATCC, CRL-2505, LNCaP clone FGC cell line was purchased from Cell Bank of the Chinese Academy of Sciences) were cultured with RPMI 1640 medium (Gibco, available from Life Technologies Corporation, 22400-089) containing 10% fetal bovine serum (Gibco, available from Life Technologies, 10099-141) and 1% antibiotics (penicillin and streptomycin, available from Life Technologies Corporation, 10378016) in a CO2 cell incubator (37° C., 5% CO2). In the cell growth inhibition experiment, 22Rv1 and LNCaP clone FGC cells in exponential growth phase were seeded on a 96-well plate (purchased from Corning Company, 3599) with a volume of 150 μL/well and a cell density of 1,500 cells/well. After seeded, the plate was placed in a CO2 incubator to incubate overnight to allow the cells to adhere. On the next day, 50 μL of a compound at different concentrations diluted in 3-fold gradient or DMSO were added in a 96-well plate containing the cells. The final concentration of the compound ranges from 0.3 to 10000 nM, and the final concentration of DMSO is 0.05% as control group. The cells were treated by the compound for 5 days. Cell viability was measured using CellTiter-Glo reagent (purchased from Promega, G7572): the cell treated with the compound for 5 days was added with CellTiter-Glo reagent at 40 μL/well, incubated at room temperature for 10 min, transferred to a white 96-well plate (OptiPlate-96, purchased from PerkinElmer, 605299) by 70 μL. Subsequently, the luminescence signal was detected using a multifunctional microplate reader EnVision (purchased from PerkinElmer) at a wavelength of 400-700 nm. The data was analyzed by using GraphPad Prism 5.0 software to obtain IC50.

The test system of assay [3] is Human castration resistant prostate cancer cell line 22Rv1. The assay is described as follows: Cell growth inhibition experiment (CellTiter-Glo), 22Rv1. As to conditions: Homo sapiens, 120 h, 22Rv1 cells treated with the compound for 5 days. The assay is classed as cell-based. The procedure: as §1
Assay [4] concerns human mantle cell lymphoma (MCL) cell line MAVER-1. The assay can be described thus: Cell growth inhibition experiment (CellTiter-Glo), MAVER-1. In kind it is cell-based. The conditions noted are these: Homo sapiens, Maver1, 120 h, MAVER-1 cells treated with the compound for 5 days. The procedure:
The human mantle cell lymphoma (MCL) cell line MAVER-1 (from ATCC, CRL-3008) was cultured with RPMI 1640 medium (Gibco, available from Life Technologies Corporation, 22400-089) containing […] (Gibco, available from Life Technologies, 10099-141) and 1% antibiotics (penicillin and streptomycin, available from Life Technologies Corporation, 10378016) in a CO2 cell incubator (37° C., 5% CO2). In the cell growth inhibition experiment, MAVER-1 cells in exponential growth phase were seeded on a 96-well plate (purchased from Corning Company, 3599) in a volume of 100 μL/well and a cell density of 1*10E5 cells/well. After seeded, the plate was placed in a CO2 incubator to culture for 1 h. 100 μL of a compound at different concentrations diluted in 3-fold gradient or DMSO were added in a 96-well plate containing the cells. The final concentration of the compound ranges from 0.3 to 10000 nM, and the final concentration of DMSO is 0.05% as control group. The cells were treated with the compound for 5 days. Cell viability was measured using CellTiter-Glo reagent (purchased from Promega, G7572): the cells treated with the compound for 5 days was added with CellTiter-Glo reagent at 20 μL/well, incubated at room temperature for 10 min, transferred to a white 96-well plate (OptiPlate-96, purchased from PerkinElmer, 605299) by 80 μL. Subsequently, the luminescence signal was detected by using a multifunctional microplate reader EnVision (purchased from PerkinElmer) at a wavelength of 400-700 nm. The data was analyzed by using GraphPad Prism 5.0 software to obtain IC50.

For the molecule `CNC(=O)Nc1ccc2c(c1)CC[C@@]21OC(=O)N(CC(=O)N2Cc3ccccc3OC[C@H]2C)C1=O` [SYY-B014-2], the IC50 is 12 nM in assay [1] and 78 nM in assay [2].
Consider `NC1(C(=O)Nc2ccc3c(c2)CC[C@]32OC(=O)N(CC(=O)N3Cc4ccc(F)cc4CC[C@H]3C3CC3)C2=O)CC1` [SYY-B035-1], for which the 50% inhibitory concentration (IC50) was less than 300 nM in assay [3] and less than 5 nM in assay [1].
For the molecule `NC1(C(=O)Nc2ccc3c(c2)CC[C@@]32OC(=O)N(CC(=O)N3Cc4ccc(F)cc4CC[C@H]3C3CC3)C2=O)CC1` [SYY-B035-2], the IC50 was less than 300 nM in assay [3] and less than 5 nM in assay [1].
The like results for `Cn1cc(-c2ccc3c(c2)CCC32NC(=O)N(CC(=O)N3Cc4ccc(F)cc4CC[C@H]3C3CC3)C2=O)cn1` (stereo partly drawn) [SYY-B043] were, in that order, less than 50 nM and less than 5 nM.
The like results for `CNC(=O)Cn1cc(-c2ccc3c(c2)CCC32NC(=O)N(CC(=O)N3Cc4ccc(F)cc4CC[C@H]3C3CC3)C2=O)cn1` (stereo partly drawn) [SYY-B045] were, in that order, less than 100 nM and less than 5 nM.
Regarding `CNC(=O)Nc1ccc2c(c1)CC[C@@]21OC(=O)N(CC(=O)N2Cc3cc(F)ccc3OC[C@H]2C(F)(F)F)C1=O` [SYY-B057-2], the values for the IC50 in assay [4], in assay [3] and in assay [1] were 65 nM, 10.5 nM and 2.4 nM, respectively.
Take `CNC(=O)Nc1ccc2c(c1)OCCC21NC(=O)N(CC(=O)N2Cc3ccc(F)cc3CC[C@H]2C2CC2)C1=O` (stereo partly drawn) [SYY-B074]: the IC50 is less than 20 nM in assay [4] and less than 10 nM in assay [1].
As for `CNC(=O)Nc1ccc2c(c1)OCCC21OC(=O)N(CC(=O)N2Cc3ccc(F)cc3CC[C@H]2C2CC2)C1=O` (stereo partly drawn) [SYY-B077], the IC50 in assay [4] was less than 20 nM; in assay [3] it was less than 20 nM; in assay [1] it was less than 5 nM.
Take `CNC(=O)Nc1ccc2c(c1)CCC21NC(=O)N(CC(=O)N2Cc3cc(F)ccc3OC[C@H]2C(F)(F)F)C1=O` (stereo partly drawn) [SYY-B083]: the 50% inhibitory concentration (IC50) in assay [4] was less than 50 nM; in assay [3], less than 100 nM; in assay [1], less than 20 nM.
The like results for `Cn1cc(-c2ccc3c(c2)CCC32OC(=O)N(CC(=O)N3Cc4cc(F)ccc4OC[C@H]3C(F)(F)F)C2=O)cn1` (stereo partly drawn) [SYY-B084] were, in that order, less than 20 nM, less than 100 nM and less than 20 nM.
The like results for `Cn1cc(-c2ccc3c(c2)CCC32NC(=O)N(CC(=O)N3Cc4cc(F)ccc4OC[C@H]3C(F)(F)F)C2=O)cn1` (stereo partly drawn) [SYY-B085] were, in that order, less than 10 nM, less than 50 nM and less than 20 nM.
The like results for `CNC(=O)Nc1ccc2c(c1)CCCC21OC(=O)N(CC(=O)N2Cc3cc(F)ccc3OC[C@H]2C2CC2)C1=O` (stereo partly drawn) [SYY-B086] were, in that order, no more than 20 nM, less than 20 nM and less than 10 nM.
For `CNC(=O)Nc1ccc2c(c1)CCCC21NC(=O)N(CC(=O)N2Cc3cc(F)ccc3OC[C@H]2C2CC2)C1=O` (stereo partly drawn) [SYY-B092], the IC50 in assay [4] and in assay [1] was less than 20 nM each time.
On to `Cn1cc(-c2ccc3c(c2)CCCC32NC(=O)N(CC(=O)N3Cc4cc(F)ccc4OC[C@H]3C3CC3)C2=O)cn1` (stereo partly drawn) [SYY-B093], for which the IC50 in assay [4], in assay [3] and in assay [1] was less than 20 nM throughout.
In the case of `CNC(=O)Nc1ccc2c(c1)OCCC21NC(=O)N(CC(=O)N2Cc3cc(F)ccc3OC[C@H]2C2CC2)C1=O` (stereo partly drawn) [SYY-B099], the IC50 in assay [3] was 121 nM; in assay [1], less than 20 nM.
Turning to `CNC(=O)Nc1ccc2c(c1)CC[C@@]21OC(=O)N(CC(=O)N2Cc3cnccc3CC[C@H]2C2CC2)C1=O` [SYY-B136-2], the half-inhibitory concentration (IC50) in assay [1] was less than 10 nM.
`CNC(=O)Nc1ccc2c(c1)CC[C@@]21OC(=O)N(CC(=O)N2Cc3sccc3OC[C@H]2C(F)(F)F)C1=O` [SYY-B140-2]: in assay [1], the IC50 was 7 nM.
As to `CNC(=O)Nc1ccc2c(c1)CCC21NC(=O)N(CC(=O)N2Cc3sccc3OC[C@H]2C(F)(F)F)C1=O` (stereo partly drawn) [SYY-B142], the IC50 in assay [1] was less than 50 nM.
Turning to `Cn1cc(-c2ccc3c(c2)CCC32OC(=O)N(CC(=O)N3Cc4sccc4OC[C@H]3C(F)(F)F)C2=O)cn1` (stereo partly drawn) [SYY-B144], the IC50 in assay [1] is less than 50 nM.
Same read-out and setting: for `CNC(=O)Nc1ccc2c(c1)OCC21NC(=O)N(CC(=O)N2Cc3cc(F)ccc3OC[C@H]2C2CC2)C1=O` (stereo partly drawn) [SYY-B156] the value was less than 30 nM; for `Cn1cc(-c2cc3c(cn2)C2(CC3)NC(=O)N(CC(=O)N3Cc4cc(F)ccc4OC[C@H]3C(F)(F)F)C2=O)cn1` (stereo partly drawn) [SYY-B161], less than 100 nM.
Regarding `Cn1cc(-c2cnc3c(c2)CCC32NC(=O)N(CC(=O)N3Cc4cc(F)ccc4OC[C@H]3C(F)(F)F)C2=O)cn1` (stereo partly drawn) [SYY-B163], the IC50 in assay [1] is less than 20 nM.
The same measure, in the same setting: for `Cn1cc(-c2ccc3c(n2)CCC32NC(=O)N(CC(=O)N3Cc4cc(F)ccc4OC[C@H]3C(F)(F)F)C2=O)cn1` (stereo partly drawn) [SYY-B165] the value was less than 20 nM; for `Cn1cc(-c2ccc3c(c2)C(O)C[C@]32NC(=O)N(CC(=O)N3Cc4cc(F)ccc4OC[C@H]3C3CC3)C2=O)cn1` (stereo partly drawn) [SYY-B170-2], less than 20 nM.
As for `CNC(=O)Nc1ccc2c(c1)CCC21NC(=O)N(CC(=O)N2Cc3cc(F)ccc3OC[C@H]2C2CC2)C1=O` (stereo partly drawn) [ZB-P-21], the IC50 in assay [4] was less than 50 nM; in assay [3], less than 100 nM; in assay [1], less than 20 nM.
In the case of `Cn1cc(-c2ccc3c(c2)CCC32NC(=O)N(CC(=O)N3Cc4cc(F)ccc4OC[C@H]3C3CC3)C2=O)cn1` (stereo partly drawn) [ZB-P-28], the IC50 in assay [4], in assay [3] and in assay [1] was less than 10 nM throughout.
Turning to `Cn1cc(-c2ccc3c(c2)CCC32OC(=O)N(CC(=O)N3Cc4cc(F)ccc4OC[C@H]3C3CC3)C2=O)cn1` (stereo partly drawn) [ZB-P-29], the IC50 in assay [4], in assay [3] and in assay [1] was less than 10 nM each time.
For the molecule `CNC(=O)Nc1cc2c(cc1F)C1(CC2)NC(=O)N(CC(=O)N2Cc3ccc(F)cc3CC[C@H]2C2CC2)C1=O` (stereo partly drawn) [ZB-P-30], in assay [1], the IC50 was less than 10 nM.
For the molecule `CNC(=O)Nc1cc2c(cc1F)C1(CC2)OC(=O)N(CC(=O)N2Cc3ccc(F)cc3CC[C@H]2C2CC2)C1=O` (stereo partly drawn) [ZB-P-31], the IC50 in assay [1] is less than 5 nM.
